What is called Kd is the concentration at which binding is half-saturated.

Active and inactive are the calls of the source. No rule for the calls is given here. Where a SMILES comes first, the peptide text is derived from it. A value given as a limit tells only on which side of the number the result lay.

Consider 104 compounds from PubChem BioAssay AID608 (Sanford-Burnham Center for Chemical Genomics, 2007).

This test deals with Peptidyl-prolyl cis-trans isomerase FKBP1A (Homo sapiens) (UniProt P62942). Nature of the test: FKBP12 binders, biophysical, NMR detection (AID 608). To be noted: NMR binding, purified FKBP12.
Sequence of Peptidyl-prolyl cis-trans isomerase FKBP1A (Homo sapiens) (P62942 whole entry, looked up): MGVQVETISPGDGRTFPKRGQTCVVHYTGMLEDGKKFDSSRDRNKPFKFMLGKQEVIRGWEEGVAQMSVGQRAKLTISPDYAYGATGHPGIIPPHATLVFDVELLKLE
For the compound `CCN1CCn2c1nc(N1CCOCC1)nc2=O`, the Kd is > 4 mM (inactive).

With `COc1cc2c(cc1NS(=O)(=O)N1CCCCC1)oc1ccccc12`, the Kd was > 4 mM (inactive).

For the compound `CC(=O)Nc1ccc(NC(=O)N2CCOCC2)cc1`, the Kd is > 4 mM (inactive).

With `COC(=O)c1c(SC)nc(-c2ccccc2)[nH]c1=O`, the Kd was > 4 mM (inactive).

For `OCc1ccc(-c2ccccn2)s1`, the Kd was > 4 mM (inactive).

In the case of `CC1CCN(C(=O)c2ccc3c(c2)OCCO3)CC1`, the Kd is > 4 mM (inactive).

`Nc1ncnc(NCCOCCO)c1[N+](=O)[O-]`: the Kd was > 4 mM (inactive).

For `Cn1c(=O)c2c(ncn2C)n(C)c1=O`, the Kd is > 4 mM (inactive).

Turning to `CC(C)(C)c1cc(NC(=O)c2cccnc2)no1`, the Kd was > 4 mM (inactive).

In the case of `C=CC(C)(O)CC/C=C(\C)CCC=C(C)C` (centres undefined), the Kd is > 4 mM (inactive).

Take `COC(=O)C1=CO[C@@H](O[C@@H]2O[C@H](CO)[C@@H](O)[C@H](O)[C@H]2O)[C@@H]2[C@@H](C)[C@@H](O)C[C@H]12`: the Kd is > 4 mM (inactive).

In the case of `NC(=O)C1CCN(S(=O)(=O)c2ccccc2)CC1`, the Kd was > 4 mM (inactive).

For the compound `Nc1cccc(-n2cnnn2)c1`, the Kd was > 4 mM (inactive).

Turning to `O=C(NCc1ccco1)c1ccc(=O)[nH]c1`, the Kd is > 4 mM (inactive).

For the compound `c1ccc(CSc2ncccn2)cc1`, the Kd was > 4 mM (inactive).

For `NS(=O)(=O)c1ccc(N=Cc2ccc[nH]2)cc1`, the Kd is > 4 mM (inactive).

For the compound `Cc1ccccc1NC(=O)C1CC(=O)N=C(N)S1` (centres undefined), the Kd was > 4 mM (inactive).

Take `O=C(c1cc(Cl)cc(Cl)c1)N1CCOCC1`: the Kd was > 4 mM (inactive).

As for `Cc1ccc2c(c1)CCCN2C(=O)c1c(C)noc1C`, the Kd was > 4 mM (inactive).

For the compound `CC(C)=CCCC1(C)C=Cc2c(O)c3c(c(CC=C(C)C)c2O1)OC12C(=CC4CC1C(C)(C)OC2(C/C=C(/C)C(=O)O)C4=O)C3=O` (centres undefined), the Kd is > 4 mM (inactive).

With `COc1cc(OC)c(OC)cc1C=O`, the Kd was > 4 mM (inactive).

Regarding `CC(=O)NC(=S)Nc1ccc(S(N)(=O)=O)cc1`, the Kd is > 4 mM (inactive).

In the case of `CCS(=O)(=O)N1CCN(c2ccccc2F)CC1`, the Kd was > 4 mM (inactive).

For the compound `S=c1[nH]nc(-c2cccnc2)n1Cc1ccccc1`, the Kd was > 4 mM (inactive).

For the compound `CN(C)c1oc(-c2ccccc2Cl)nc1C#N`, the Kd is > 4 mM (inactive).

In the case of `O=C(NC(=S)NN1CCOCC1)c1cccs1`, the Kd is > 4 mM (inactive).

For `C/C1=C\CCC(=O)C2CC(C)(C)C2CC1` (centres undefined), the Kd was > 4 mM (inactive).

In the case of `COc1ccc(C)cc1-n1c(-c2ccncc2)n[nH]c1=S`, the Kd was > 4 mM (inactive).

Consider `O=C(NCCO)NC(=S)c1ccccc1`, for which the Kd was > 4 mM (inactive).

On to `COc1ccc2c(c1)[nH]c1c(C)nccc12`, for which the Kd was > 4 mM (inactive).

Consider `Cc1nnc2n(c1=O)N=C(c1ccccc1)CS2`, for which the Kd was > 4 mM (inactive).

Regarding `O=C(O)c1cccc(CSc2ncccn2)c1`, the Kd is > 4 mM (inactive).

For the compound `Cn1c(SCC(N)=O)nc2c1c(=O)[nH]c(=O)n2C`, the Kd was > 4 mM (inactive).

With `Cc1ccc(C(=O)NC2=NCCS2)o1`, the Kd was > 4 mM (inactive).

`N#Cc1cc2ccccc2nc1N`: the Kd is > 4 mM (inactive).

On to `O=C1C(=O)N(CN2CCN(CCO)CC2)c2ccccc21`, for which the Kd is > 4 mM (inactive).

Turning to `NC(=O)c1ccccc1NC(=O)C1CC1`, the Kd is > 4 mM (inactive).

Turning to `COc1cc(S(=O)(=O)N(C)C)ccc1F`, the Kd was > 4 mM (inactive).

With `CC(=O)N1CCN(C2CCSC2)CC1` (centres undefined), the Kd is > 4 mM (inactive).

Take `CCCCCC1C(=O)CCC1CC(=O)OC` (centres undefined): the Kd was > 4 mM (inactive).

Take `CC1=CC(=O)C2C(C)(C)CCC[C@]2(C)[C@@]1(O)CCc1ccoc1` (some centres undefined): the Kd was > 4 mM (inactive).

For the compound `CC(=O)Nc1ccc(S(N)(=O)=O)cc1`, the Kd was > 4 mM (inactive).

Regarding `Nc1ncnc2c1ncn2C1O[C@H](COP(=O)(O)O)[C@@H](O)[C@H]1O` (some centres undefined), the Kd was > 4 mM (inactive).

For `c1ccc(Cc2nnc3sc(-c4cccnc4)nn23)cc1`, the Kd is > 4 mM (inactive).

As for `Cc1csc2nc(=O)c3ccccc3n12`, the Kd was > 4 mM (inactive).

As to `Cc1ncc(C[n+]2csc3ccccc32)c(N)n1`, the Kd is > 4 mM (inactive).

`CS(=O)(=O)Nc1nnc(Cc2ccccc2)s1`: the Kd is > 4 mM (inactive).

`CCOCC(=O)N1CCc2ccccc21`: the Kd is > 4 mM (inactive).

As for `CCN1CCc2c(sc(N)c2C#N)C1`, the Kd is > 4 mM (inactive).

On to `O=C(Nn1cnnc1)c1cc2c(s1)CCCC2`, for which the Kd was > 4 mM (inactive).

For the compound `CC(=O)N[C@@H](CC(=O)O)C(=O)N[C@@H](CCC(=O)O)C(=O)O` (Ac-Asp-Glu-OH), the Kd was > 4 mM (inactive).

For the compound `O=C1CSC(=O)N1CNc1ccccc1`, the Kd was > 4 mM (inactive).

In the case of `CC1(C)Cc2cccc(C(=O)O)c2O1`, the Kd was > 4 mM (inactive).

As to `O=C(Nc1ccc2c(c1)OCO2)c1cccc(F)c1`, the Kd was > 4 mM (inactive).

Consider `O=C(c1ccccc1)c1ccccc1C(=O)N1CCCC1`, for which the Kd was > 4 mM (inactive).

In the case of `Cc1cccc(-n2c(N)cc(=O)[nH]c2=S)c1`, the Kd is > 4 mM (inactive).

As to `CCOc1ccc2nc(NS(C)(=O)=O)sc2c1`, the Kd was > 4 mM (inactive).

On to `Clc1ccccc1OCCn1ccnc1`, for which the Kd is > 4 mM (inactive).

Take `Cc1ccc(SCc2nc(-c3cccnc3)no2)cc1`: the Kd was > 4 mM (inactive).

For the compound `FC(F)(F)c1cccc(Cn2c(-c3cscn3)nc3ccccc32)c1`, the Kd result is “inactive”.

Turning to `NC1=NC(=O)/C(=C\c2ccccc2)S1`, the Kd is > 4 mM (inactive).

Take `O=C1C2CCCCC2C(=O)N1c1nccs1` (centres undefined): the Kd was > 4 mM (inactive).

Consider `NNc1ncnc2sccc12`, for which the Kd was > 4 mM (inactive).

Take `C=CCc1ccc2c(c1)OCO2`: the Kd was > 4 mM (inactive).

For the compound `Nc1ccn(C2O[C@H](CO)[C@@H](O)[C@H]2O)c(=O)n1` (some centres undefined), the Kd is > 4 mM (inactive).

For `NC(N)=NCCCCN=C(N)N`, the Kd was > 4 mM (inactive).

As for `CC1(C)C(=O)[C@@H]2C[C@@]3(O)C4=CC(=O)O[C@@H](c5ccoc5)[C@]4(C)CCC3C(C)(C2=O)[C@H]1CC(=O)O` (some centres undefined), the Kd is > 4 mM (inactive).

Turning to `OC1CCNC2CCCCC12` (centres undefined), the Kd is > 4 mM (inactive).

`CNc1nnc(CSc2nc(C)cc(C)n2)s1`: the Kd is > 4 mM (inactive).

Turning to `COc1ccc([C@H]2COc3c(ccc(O)c3OC)C2)c(OC)c1O`, the Kd was > 4 mM (inactive).

With `CSc1nc2nccc(N)n2n1`, the Kd was > 4 mM (inactive).

For `Cc1cc(Cl)ccc1OCC(=O)N1CCOCC1`, the Kd result was “inactive”.

For the compound `Nc1ccccc1C(=O)N1CCNC(=O)C1`, the Kd is > 4 mM (inactive).

For `O=C(O)c1ccc2nccnc2c1`, the Kd was > 4 mM (inactive).

As for `CC(=O)O[C@H]1C[C@@H](OC(C)=O)C(C)(C)C2C[C@@H](O)[C@]3(C)C(CC[C@@]4(C)[C@H](c5ccoc5)OC(=O)[C@H]5O[C@]543)[C@]21C` (some centres undefined), the Kd is > 4 mM (inactive).

Turning to `O=c1c2ccccc2nc(-c2ccco2)n1-c1nccs1`, the Kd is > 4 mM (inactive).

As to `O=C(O)C1=C[C@@H](O)[C@@H](O)[C@H](O)C1`, the Kd is > 4 mM (inactive).

For the compound `O=c1oc(-c2ccccc2)nc2c1cnn2-c1ccccc1`, the Kd was > 4 mM (inactive).

In the case of `Cc1nn(C)c(C)c1C(=O)O`, the Kd was > 4 mM (inactive).

On to `O=C1NC(=O)C(C(C[N+](=O)[O-])c2ccc(O)cc2)C(=O)N1` (centres undefined), for which the Kd is > 4 mM (inactive).

For `O=C(NCc1cccs1)c1ccc2c(c1)OCCO2`, the Kd is > 4 mM (inactive).

In the case of `O=C(O)c1onc2ccccc12`, the Kd is > 4 mM (inactive).

In the case of `Cn1c(=O)n(-c2cccc(Cl)c2)c(=O)n1C`, the Kd is > 4 mM (inactive).

In the case of `COC(=O)N(c1ccccc1)P1(=S)OCCO1`, the Kd was > 4 mM (inactive).

Regarding `O=C(Cc1cccs1)Nc1ccon1`, the Kd was > 4 mM (inactive).

In the case of `Clc1ncc2[nH]cnc2n1`, the Kd is > 4 mM (inactive).

Consider `O=C(Nc1ncccn1)c1cccc(F)c1`, for which the Kd is > 4 mM (inactive).

With `COc1cc2c(cc1OC)C1Cc3ccc(OC)c(OC)c3CN1CC2` (centres undefined), the Kd was > 4 mM (inactive).

Take `NC(Cn1ccc(=O)c(O)c1)C(=O)O` (centres undefined): the Kd was > 4 mM (inactive).

As for `CCC(=O)Nc1ccc(-c2nn3c(C)nnc3s2)cc1`, the Kd is > 4 mM (inactive).

For `CCOC(=O)C1CCN(c2ccc(C#N)cc2)CC1`, the Kd was > 4 mM (inactive).

Consider `Cn1c(=O)c2[nH]c(Nc3ccccc3)nc2n(C)c1=O`, for which the Kd is > 4 mM (inactive).

On to `CCOc1ccc(OCC(=O)N2CCOCC2)cc1`, for which the Kd entry was “inactive”.

On to `Nc1csc(C(=O)O)c1`, for which the Kd is > 4 mM (inactive).

As for `Cc1cc(C)n(S(=O)(=O)c2ccc(C)c(C)c2C)n1`, the Kd is > 4 mM (inactive).

For `NC(=O)c1ccc2c(c1)OCO2`, the Kd was > 4 mM (inactive).

For `COc1ccc(N=C2NC(=O)CS2)cc1`, the Kd is > 4 mM (inactive).

Turning to `CCCNC(CC(=O)Nc1cccnc1)C(=O)O` (centres undefined), the Kd is > 4 mM (inactive).

`O=C(OCc1c(F)cccc1Cl)c1cnccn1`: the Kd is > 4 mM (inactive).

In the case of `O=c1c(O)c(-c2ccccc2)oc2ccccc12`, the Kd was > 4 mM (inactive).

On to `O=C(Nc1ccccc1Cl)c1cnccn1`, for which the Kd was > 4 mM (inactive).

For `O=C(CSc1cccc2cccnc12)N1CCCC1`, the Kd was > 4 mM (inactive).

`CC(=O)Nc1ccc(S(=O)(=O)N(C)C)cc1`: the Kd was > 4 mM (inactive).

As to `CC(O)c1ccc(C(C)O)cc1` (centres undefined), the Kd was > 4 mM (inactive).
